Measurements taken from patent US20110293537A1, “FORMULATIONS WITH ANTI-NEOPLASTIC ACTIVITY” (priority 2008, published 2011).
Like-named read-outs stand apart in the source and are kept apart here.

Tests used:
[1] = test system: buccal pouches and principal organs; experiment: Local toxicity of empty vehicles without DMBA induction; type: in vivo, Syrian golden hamsters (Mesocricetus auratus)
Experimental: The last thirty animals were randomly divided in three further groups (n=10 each) to evaluate the local toxicity of the empty vehicles (TE, TC and TM) without DMBA carcinogenesis induction. Topical application of EtOH, cream and mouthwash was performed in the same manner before described.
In vivo side effects were investigated after 14 weeks of E, C and M topical applications on right buccal pouches on three groups of animals (TE, TC and TM respectively).

[2] = test system: DMBA-induced lesions (OPL, ExL) of hamster buccal pouch; conditions: in vivo
[3] = cited from earlier work
[4] = cited from earlier work; remark: listed apart in the source
HCPC-I cells = conditions: in vitro, FIG. 2
Experimental: Cells were harvested every 3-4 days with 0.25% trypsin solution (from Sigma). […] HCPC-I cells were dispensed at a density of 5×10^2/100 μl for each well in RPMI-1640 supplemented with 10% FCS. […] After 72 h of incubation, cells were supplemented with 10 μl of a stock solution (5 mg/ml) of MTT (Sigma) in phosphate buffer saline (PBS). At least 3 h later, culture medium was replaced with 100 μl of dimethyl-sulfoxide (DMSO, Sigma) and plates read at 560 nm with a “Microplate Reader model 450” (BioRad). Cell viability was expressed as average percentage of absorbance in treated cells versus control (culture medium alone).

[5] = cited from earlier work; remark: listed apart in the source
[6] = 14 weeks topical application, no DMBA

**Q.** Which results are given for `CCO` [EtOH, ethanol]?
**A.** gross observations of pouches and principal organs [1, 6]: did not reveal any macroscopic alterations; histological HE analysis, local adverse reactions [1, 6]: absence of local adverse reactions

**Q.** For `Oc1ccc(/C=C/c2cc(O)cc(O)c2)cc1` [RV, 3,4′,5-trihydroxy-trans-stilbene], which “tolerance of topical application on oral mucosa” value [2] is on record?
**A.** The value was “good tolerance”.

**Q.** What about the pKa ([3]; 3-OH group) of the same compound?
**A.** Its pKa is 10.

**Q.** And the pKa ([3]; 4′-OH group)?
**A.** Its pKa is 9.3.

**Q.** What about the pKa ([3]; 5-OH group) of the same compound?
**A.** The pKa was 10.6.

**Q.** And the oral bioavailability ([4]; human)?
**A.** The oral bioavailability was “very poor”.

**Q.** And the initial half-life ([4]; in vivo)?
**A.** The initial half-life was 8 to 14 min.

**Q.** For hydroxypropyl-β-cyclodextrin [HPβCD], which “inhibition of cell growth by HPβCD” value (HCPC-I cells) is on record?
**A.** Its value is “inhibition of cell growth only at extremely high concentrations”.

**Q.** And the “dose with main adverse event (soft stools and diarrhea)” value ([5]; almost 14 days)?
**A.** Its value is 16-24 g HPβCD/day.

**Q.** What about the oral toxicity ([5]; orally administered) of the same compound?
**A.** Its oral toxicity is “practically non-toxic”.

**Q.** And the “toxic signs or adverse effects in chronic treated hamsters” value ([1]; in vivo concentrations)?
**A.** The value was “did not display any toxic signs or adverse effects”.
